The molecules below were run against T1, ROCK II (Homo sapiens, UniProt O75116) (assay: ROCK II kinase inhibition, Method 1 Proqinase setup (33P radioisotopic protein kinase assay)). Conditions: 33P radioisotopic assay, 1 μM ATP, read-out: IC50 Meth. 1.
T1 construct: purchased Proqinase
Format: biochemical
Method: A ^33P radioisotopic protein kinase assay is used to determine the IC50 for inhibiting ROCK II. A final 50 μl reaction cocktail, containing 60 mM HEPES-NaOH (pH 7.5), 3 mM MgCl2, 3 mM MnCl2, 3 μM Na-orthovanadate, 1.2 mM DTT, 1 μM ATP, 50 μg/ml PEG20.000, 1% (v/v) DMSO, 1 μM ATP (approx. 3×10^5 cpm ^33P-γ-ATP), the substrate (Substrate: S6 peptide—2000 ng/well) and recombinant protein kinase (0.5 nM-2.5 ng/well) is mixed on a shaker and incubated at 30° C. for 80 minutes. The reaction is stopped by the addition of 50 μl of a 2% solution of H3PO4 and mixed on a shaker. After washing twice with 200 μl of a 0.9% solution of NaCl, the dry plate is counted.

T1 sequence (O75116 whole entry): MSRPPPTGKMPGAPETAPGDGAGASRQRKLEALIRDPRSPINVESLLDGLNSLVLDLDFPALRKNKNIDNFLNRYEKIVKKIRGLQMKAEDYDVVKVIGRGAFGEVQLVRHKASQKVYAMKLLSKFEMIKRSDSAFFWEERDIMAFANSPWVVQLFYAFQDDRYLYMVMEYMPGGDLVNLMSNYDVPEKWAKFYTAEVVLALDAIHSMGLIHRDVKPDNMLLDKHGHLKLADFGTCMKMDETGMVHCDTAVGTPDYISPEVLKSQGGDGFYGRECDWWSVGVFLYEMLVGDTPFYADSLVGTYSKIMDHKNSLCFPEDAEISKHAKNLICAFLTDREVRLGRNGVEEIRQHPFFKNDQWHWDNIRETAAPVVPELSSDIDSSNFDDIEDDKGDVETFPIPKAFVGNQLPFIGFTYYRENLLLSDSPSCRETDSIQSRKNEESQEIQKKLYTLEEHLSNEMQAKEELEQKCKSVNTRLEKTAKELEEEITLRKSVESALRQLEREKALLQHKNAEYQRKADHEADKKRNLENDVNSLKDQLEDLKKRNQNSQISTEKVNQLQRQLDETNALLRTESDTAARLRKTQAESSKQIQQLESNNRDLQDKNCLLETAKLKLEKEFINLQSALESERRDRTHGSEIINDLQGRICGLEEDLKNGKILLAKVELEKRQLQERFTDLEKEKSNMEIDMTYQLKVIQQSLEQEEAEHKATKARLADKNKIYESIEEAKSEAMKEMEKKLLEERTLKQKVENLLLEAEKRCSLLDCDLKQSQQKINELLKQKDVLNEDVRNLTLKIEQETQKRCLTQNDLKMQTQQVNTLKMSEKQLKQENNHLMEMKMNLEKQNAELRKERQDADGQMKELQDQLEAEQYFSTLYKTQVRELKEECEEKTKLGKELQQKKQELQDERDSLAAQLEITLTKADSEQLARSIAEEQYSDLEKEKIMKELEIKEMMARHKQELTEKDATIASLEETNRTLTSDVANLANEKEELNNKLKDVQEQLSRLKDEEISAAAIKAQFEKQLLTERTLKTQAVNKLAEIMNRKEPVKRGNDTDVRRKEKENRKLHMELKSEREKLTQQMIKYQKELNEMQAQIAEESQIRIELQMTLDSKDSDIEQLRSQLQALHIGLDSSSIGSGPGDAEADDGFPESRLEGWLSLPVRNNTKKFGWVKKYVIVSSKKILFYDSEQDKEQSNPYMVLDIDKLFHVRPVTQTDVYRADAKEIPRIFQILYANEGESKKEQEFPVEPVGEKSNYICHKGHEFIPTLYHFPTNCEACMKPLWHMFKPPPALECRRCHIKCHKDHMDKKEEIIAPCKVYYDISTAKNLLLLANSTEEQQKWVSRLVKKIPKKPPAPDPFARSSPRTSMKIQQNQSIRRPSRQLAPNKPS

Row | IC50 [µM] | Molecule
1 | 0.1 to 1 | CCCCOC(=O)c1cccc(-c2cc(C(=O)Nc3ccncc3)ccc2CN)c1 [Compound 14, 2′-Aminomethyl-5′-(pyridin-4-ylcarbamoyl)-biphenyl-3-carboxylic acid butyl ester]
2 | 0.1 to 1 | NCc1ccc(C(=O)Nc2ccncc2)cc1-c1cccc(C(=O)OC2CCCCC2)c1 [Compound 35, 2′-Aminomethyl-5′-(pyridin-4-ylcarbamoyl)-biphenyl-3-carboxylic acid cyclohexyl ester]

Each molecule was assayed against T2, ROCKα/ROCKII (Homo sapiens, UniProt O75116) (assay: ROCK inhibition, Method 2 fluorescence polarization (FP) assay, ROCK IMAP Kit). Conditions: 10 μM ATP, read-out: IC50 Meth. 2.
T2 construct: purchased Upstate Biotechnology 14-451
Format: biochemical
Method: The inhibition assays were performed with a fluorescence polarization (FP) assay using the commercially available ROCK IMAP Kit from Molecular Devices (Product ID. No. R8093), essentially in accordance with the protocol supplied by the manufacturer. […] The enzyme mix ROCKα/ROCKII was obtained from Upstate Biotechnology (Product ID No 14-451).
In summary, all compounds were screened in the wells of a 384 well plate for enzymatic inhibition with concentrations varying from 100 μM to 0.3 nM using a stepwise 3 (or 2)-fold dilution.
To perform the assay, 1 μl of a solution of the compound to be tested in DMSO (at each concentration) was added to 2 μl of a solution of the enzyme in 10 mM Tris-HCl, 10 mM MgCl2, 0.1% BSA, 0.05% NaN3, pH 7,2. The final concentration of the enzyme was 2.6 nM.
After incubating for 30 minutes at RT, 2 μl of a mixture of ATP and the protein substrate in 10 mM Tris-HCl, 10 mM MgCl2, 0.1% BSA, 0.05% NaN3, pH 7.2 was added. The final concentration of the ATP was 10 μM and final concentration of protein substrate was 0.2 μM.
After incubating for 60 minutes at RT, 12 μl of the IMAP Binding Solution (mix of the IMAP Binding Buffer A (1×) and the IMAP Binding Reagent (from the ROCK IMAP kit)) was added.
The mixture thus obtained (total volume: 17 μl) was incubated for 60 minutes at RT, upon which the fluorescence polarization was measured using an automated plate reader (Perkin Elmer, Model Envision 2100-0010 HTS) with FP filters: excitation filter FITC FP 480 and emission filters FITC FP P-pol 535 and FITC FP S-pol 535 (Perkin-Elmer). The results were fitted to a curve using the XL-Fit algorithm and IC50 values were calculated for each fitted curve, again using the XL-Fit algorithm.

T2 sequence (O75116 whole entry): as above

Row | Molecule | IC50 [µM]
3 | CC(N)c1ccc(C(=O)Nc2ccncc2)cc1-c1cccc2[nH]c(C(=O)Oc3ccccc3)cc12 (stereo not shown) [Compound 173, 4-[2-(1-Amino-ethyl)-5-(pyridin-4-ylcarbamoyl)-phenyl]-1H-indole-2-carboxylic acid phenyl ester] | 0.1 to 1
4 | CC(N)c1ccc(C(=O)Nc2ccncc2)cc1-c1cccc(C(=O)OCc2ccccc2[N+](=O)[O-])c1 (stereo not shown) [Compound 85, 2′-(1-Amino-ethyl)-5′-(pyridin-4-ylcarbamoyl)-biphenyl-3-carboxylic acid 2-nitro-benzyl ester] | 0.1 to 1
5 | CC(N)c1ccc(C(=O)Nc2ccncc2)cc1-c1cccc(C(=O)OCc2ccc(Br)cc2)c1 (stereo not shown) [Compound 84, 2′-(1-Amino-ethyl)-5′-(pyridin-4-ylcarbamoyl)-biphenyl-3-carboxylic acid 4-bromo-benzyl ester] | 0.1 to 1
6 | CCCOC(=O)COc1cccc(-c2cc(C(=O)Nc3ccncc3F)ccc2C(C)N)c1 (stereo not shown) [Compound 141, [2′-(1-Amino-ethyl)-5′-(3-fluoro-pyridin-4-ylcarbamoyl)-biphenyl-3-yloxy]-acetic acid propyl ester] | 0.1 to 1
7 | CC(N)c1ccc(C(=O)Nc2ccncc2)cc1-c1cccc(C(=O)OCCc2ccsc2)c1 (stereo not shown) [Compound 92, 2′-(1-Amino-ethyl)-5′-(pyridin-4-ylcarbamoyl)-biphenyl-3-carboxylic acid 2-thiophen-3-yl-ethyl ester] | 0.1 to 1
8 | CC(N)c1ccc(C(=O)Nc2ccncc2)cc1-c1cccc(C(=O)OCCc2ccccc2)c1 (stereo not shown) [Compound 87, 2′-(1-Amino-ethyl)-5′-(pyridin-4-ylcarbamoyl)-biphenyl-3-carboxylic acid phenethyl ester] | 0.1 to 1
9 | CC(N)c1ccc(C(=O)Nc2ccncc2)cc1-c1cccc(C(=O)OCCc2cccs2)c1 (stereo not shown) [Compound 91, 2′-(1-Amino-ethyl)-5′-(pyridin-4-ylcarbamoyl)-biphenyl-3-carboxylic acid 2-thiophen-2-yl-ethyl ester] | 0.1 to 1
10 | CC(N)c1ccc(C(=O)Nc2ccncc2)cc1-c1cccc(C(=O)OCCN2C(=O)c3ccccc3C2=O)c1 (stereo not shown) [Compound 95, 2′-(1-Amino-ethyl)-5′-(pyridin-4-ylcarbamoyl)-biphenyl-3-carboxylic acid 2-(1,3-dioxo-1,3-dihydro-isoindol-2-yl)-ethyl ester] | 0.1 to 1
11 | CC(N)c1ccc(C(=O)Nc2ccncc2)cc1-c1cccc(C(=O)OCC2CCc3ccccc3C2)c1 (stereo not shown) [Compound 94, 2′-(1-Amino-ethyl)-5′-(pyridin-4-ylcarbamoyl)-biphenyl-3-carboxylic acid 1,2,3,4-tetrahydro-naphthalen-2-ylmethyl ester] | 0.1 to 1
12 | 2′-(1-Amino-ethyl)-5′- (pyridin-4-ylcarbamoyl)- biphenyl-3-carboxylic acid 2-(toluene-4-sulfonyl)-ethyl ester [Compound 89] | 0.1 to 1
13 | CCCCCCCCCCCCCOC(=O)c1cccc(-c2cc(C(=O)Nc3ccncc3)ccc2C(C)N)c1 (stereo not shown) [Compound 23, 2′-(1-Amino-ethyl)-5′-(pyridin-4-ylcarbamoyl)-biphenyl-3-carboxylic acid tridecyl ester] | 1 to 10
14 | CCCOC(=O)c1cccc(-c2cc(C(=O)Nc3ccncc3F)ccc2CN)c1 [Compound 174] | 0.1 to 1
15 | CC(N)c1ccc(C(=O)Nc2ccncc2F)cc1-c1cccc(C(=O)OCCCO)c1 (stereo not shown) [Compound 68, 2′-(1-Amino-ethyl)-5′-(3-fluoro-pyridin-4-ylcarbamoyl)-biphenyl-3-carboxylic acid 3-hydroxy-propyl ester] | < 0.1
16 | CC(N)c1ccc(C(=O)Nc2ccncc2)cc1-c1cccc(C(=O)Oc2ccc3c(c2)OC(=O)CC3)c1 (stereo not shown) [Compound 176] | < 0.1
17 | CC(N)c1ccc(C(=O)Nc2ccncc2F)cc1-c1cccc(OCCSC2CCOC2=O)c1 (stereo not shown) [Compound 177] | 0.1 to 1
18 | COc1ccc(OC(=O)c2cccc(-c3cc(C(=O)Nc4ccncc4)ccc3C(C)N)c2)c(OC)c1OC (stereo not shown) [Compound 81, 2′-(1-Amino-ethyl)-5′-(pyridin-4-ylcarbamoyl)-biphenyl-3-carboxylic acid 2,3,4-trimethoxy-phenyl ester] | < 0.1

The remaining lines, values ahead:

Row | IC50 [µM] | Molecule
19 | < 0.1 | COc1ccc(OC(=O)c2cccc(-c3cc(C(=O)Nc4ccncc4)ccc3C(C)N)c2)cc1OC (stereo not shown) [Compound 77, 2′-(1-Amino-ethyl)-5′-(pyridin-4-ylcarbamoyl)-biphenyl-3-carboxylic acid 3,4-dimethoxy-phenyl ester]
20 | < 0.1 | Cc1ccc(OC(=O)c2cccc(-c3cc(C(=O)Nc4ccncc4)ccc3C(C)N)c2)cc1 (stereo not shown) [Compound 73, 2′-(1-Amino-ethyl)-5′-(pyridin-4-ylcarbamoyl)-biphenyl-3-carboxylic acid p-tolyl ester]
21 | < 0.1 | CC(N)c1ccc(C(=O)Nc2ccncc2)cc1-c1cccc(OCCSC2CCOC2=O)c1 (stereo not shown) [Compound 130, 6-(1-Amino-ethyl)-3′-[2-(2-oxo-tetrahydro-furan-3-ylsulfanyl)-ethoxy]-biphenyl-3-carboxylylic acid pyridin-4-ylamide]
22 | < 0.1 | CC(C)COC(=O)c1cccc(-c2cc(C(=O)Nc3ccncc3)ccc2C(C)N)c1 (stereo not shown) [Compound 40, 2′-(1-Amino-ethyl)-5′-(pyridin-4-ylcarbamoyl)-biphenyl-3-carboxylic acid isobutyl ester]
23 | < 0.1 | COc1cc(OC)cc(OC(=O)c2cccc(-c3cc(C(=O)Nc4ccncc4)ccc3C(C)N)c2)c1 (stereo not shown) [Compound 75, 2′-(1-Amino-ethyl)-5′-(pyridin-4-ylcarbamoyl)-biphenyl-3-carboxylic acid 3,5-dimethoxy-phenyl ester]
24 | < 0.1 | CC(N)c1ccc(C(=O)Nc2ccncc2)cc1-c1cccc(C(=O)NC2CCSC2=O)c1 (stereo not shown) [Compound 112, 6-(1-Amino-ethyl)-biphenyl-3,3′-dicarboxylic acid 3′-[(2-oxo-tetrahydro-thiophen-3-yl)-amide] 3-pyridin-4-ylamide]
25 | < 0.1 | COc1ccc(OC(=O)c2cccc(-c3cc(C(=O)Nc4ccncc4F)ccc3C(C)N)c2)cc1OC (stereo not shown) [Compound 78, 2′-(1-Amino-ethyl)-5′-(3-fluoro-pyridin-4-ylcarbamoyl)-biphenyl-3-carboxylic acid 3,4-dimethoxy-phenyl ester]
26 | < 0.1 | CCOC(=O)CSCC(=O)Nc1cccc(-c2cc(C(=O)Nc3ccncc3)ccc2C(C)N)c1 (stereo not shown) [Compound 154, {[2′-(1-Aminoethyl)-5′-(pyridin-4-ylcarbamoyl)-biphenyl-3-ylcarbamoyl]-methylsulfanyl}-acetic acid ethyl ester]
27 | < 0.1 | CC(N)c1ccc(C(=O)Nc2ccncc2)cc1-c1cccc(C(=O)SC(C)(C)C)c1 (stereo not shown) [Compound 101, 2′-(1-Amino-ethyl)-5′-(pyridin-4-ylcarbamoyl)-biphenyl-3-carbothioic acid S-tert-butyl ester]
28 | < 0.1 | CC(N)c1ccc(C(=O)Nc2ccncc2)cc1-c1cccc(C(=O)Oc2ccc(F)cc2)c1 (stereo not shown) [Compound 72, 2′-(1-Amino-ethyl)-5′-(pyridin-4-ylcarbamoyl)-biphenyl-3-carboxylic acid 4-fluoro-phenyl ester]
29 | < 0.1 | CC(C)OC(=O)c1cccc(-c2cc(C(=O)Nc3ccncc3)ccc2C(C)N)c1 (stereo not shown) [Compound 27, 2′-(1-Amino-ethyl)-5′-(pyridin-4-ylcarbamoyl)-biphenyl-3-carboxylic acid isopropyl ester]
30 | < 0.1 | CC(N)c1ccc(C(=O)Nc2ccncc2)cc1-c1cccc(C(=O)OCC2CC2)c1 (stereo not shown) [Compound 36, 2′-(1-Amino-ethyl)-5′-(pyridin-4-ylcarbamoyl)-biphenyl-3-carboxylic acid cyclopropylmethyl ester]
31 | < 0.1 | CC(N)c1ccc(C(=O)Nc2ccncc2)cc1-c1cccc(C(=O)OC2CCCCC2)c1 (stereo not shown) [Compound 34, 2′-(1-Amino-ethyl)-5′-(pyridin-4-ylcarbamoyl)-biphenyl-3-carboxylic acid cyclohexyl ester]

Source: patent publication US8912209B2, “Rock inhibitors” (Amakem NV, priority 2010, dated 2014)
